One data set concerns Streptococcus pyogenes. Nature of the data set: In vitro antibacterial activity against gram-positive organism Streptococcus pyogenes EES61. Format: functional. The settings on record: Streptococcus pyogenes; read-out: MIC.
For data set [1], the target named is T1, DNA gyrase (Staphylococcus aureus) (UniProt P0A0K8+P20831). Nature of the data set: In vitro antibacterial activity against gram-positive organism Staphylococcus aureus NCTC-10649M. Format: functional.
In data set [2] the test system is Streptococcus pneumoniae. Kind of data set: (§1) In vivo efficacy against Strep. administration. Format: functional.
Data set [3] addresses T2, DNA gyrase (Escherichia coli) (UniProt P0AES6+P0AES4). Nature of the data set: In vitro antibacterial activity against gram-negative organism Klebsiella pneumoniae ATCC 8045. Format: functional.
Data set [4] has as its target T2, DNA gyrase (Escherichia coli). Kind of data set: In vitro antibacterial against gram-negative organism Escherichia coli JUHL. Format: functional. The settings on record: Escherichia coli K-12.
Another data set deals with Enterococcus faecalis. Nature of the data set: Inhibitory activity against enterococcus faecalis Van B. Format: functional.
In data set [5] the test system is Streptococcus pneumoniae. The data set is described as §1. Format: functional. This is another data set of the same source.
Data set [6] deals with T2, DNA gyrase (Escherichia coli). Kind of data set: In vitro antibacterial activity against gram-positive organism Enterococcus faecium ATCC 8043. Format: functional.
Data set [7] can be described thus: In vitro antibacterial activity against gram-negative organism Pseudomonas aeruginosa DPHD-2862. Format: functional. The settings on record: Pseudomonas aeruginosa; read-out: MIC.
The test system of another data set is Escherichia coli. Nature of the data set: In vivo efficacy against Escherichia coli JUHL by orally administered. Format: functional. Particulars: po.
The target of data set [8] is T2, DNA gyrase (Escherichia coli). Nature of the data set: In vitro antibacterial activity against gram-negative organism […] ATCC 13048. Format: functional. The settings on record: Enterobacter aerogenes.
The nature of data set [9]: In vitro antibacterial activity against gram-negative organism Pseudomonas aeruginosa 5007. Format: functional. The settings on record: Pseudomonas aeruginosa; read-out: MIC.
The subject of the next data set is Enterococcus faecium. Kind of data set: Inhibitory activity against enterococcus faecium Van A. Format: functional.
In data set [10] the target is T2, DNA gyrase (Escherichia coli). Kind of data set: In vitro antibacterial activity against gram-negative organism Prov. stuartii CMX-640. Format: functional. The settings on record: Providencia stuartii.
Data set [11] concerns the target T1, DNA gyrase (Staphylococcus aureus). Nature of the data set: In vivo efficacy against Staphylococcus aureus NCTC-10649M after oral administration. Format: functional, organism-based.
For data set [12], the target named is T2, DNA gyrase (Escherichia coli). Kind of data set: In vitro antibacterial activity against gram-positive organism Streptococcus bovis A-5169. Particulars: Streptococcus equinus. Format: functional.
Data set [13] addresses T1, DNA gyrase (Staphylococcus aureus). Kind of data set: In vitro antibacterial activity against gram-positive organism Staphylococcus aureus 1775. Format: functional.
For data set [14] the target is unchanged. Kind of data set: In vivo efficacy against Staphylococcus aureus NCTC-10649M after subcutaneous administration. Format: functional, organism-based.
Data set [15] has the same target. Nature of the data set: In vitro antibacterial activity against gram-positive organism Staphylococcus aureus ATCC 6538p. Format: functional.
Data set [16] concerns the target T2, DNA gyrase (Escherichia coli). Nature of the data set: In vivo efficacy against Escherichia coli JUHL by subcutaneous administration. Format: functional, organism-based. The settings on record: Escherichia coli K-12.
A short description of another data set: physchem. The settings on record: phosphate buffer, pH 7.4.
Data set [17] addresses T2, DNA gyrase (Escherichia coli). The settings on record: Escherichia coli K-12.
Description: Concentration which causes 50% of the gyrase (Escherichia coli H560)-mediated maximal DNA cleavage.
A short description of data set [18]: Maximum plasma concentration in rats after an oral dose of 5 mg/kg. Particulars: rat.
Data set [19] can be described thus: in vivo. The settings on record: rat, po, 5 mg/kg.
Description: Oral bioavailability in rat (dose 5 mg/kg)
A short description of data set [20]: in vivo. Particulars: rat, plasma, po, 5 mg/kg.
For data set [21], the system named is Pseudomonas aeruginosa. Kind of data set: In vivo efficacy against Pseudomonas aeruginosa 5007 following p.o. administration.
A short description of data set [22]: In vivo efficacy against Pseudomonas aeruginosa 5007 after subcutaneous administration. Format: functional.
Data set [23] concerns the target T2, DNA gyrase (Escherichia coli). Kind of data set: In vivo efficacy against Escherichia coli JUHL after oral administration. Format: functional, organism-based. The settings on record: Escherichia coli K-12.
The subject of data set [24] is Pseudomonas aeruginosa. Kind of data set: In vivo efficacy against Pseudomonas aeruginosa 5007 by orally administered. Format: functional. The settings on record: Pseudomonas aeruginosa, po; read-out: ED50.
The test system of data set [25] is Streptococcus pneumoniae. Kind of data set: In vivo efficacy against Strep. administered. Format: functional. The settings on record: Streptococcus pneumoniae; read-out: ED50.
Data set [26] is described as follows: in vivo. The settings on record: rat, plasma, po, 5 mg/kg. This is another data set of the same source.
The subject of another data set is Streptococcus equinus. Kind of data set: In vitro antibacterial activity against gram-positive organism Strep. bovis A-5169. Format: functional.
The test system of data set [27] is Streptococcus pneumoniae. The description is as §1. Format: functional. The source holds these as a separate data set.
[28] abbreviates: Pseudomonas aeruginosa, sc, read-out: ED50.
[29] abbreviates: Streptococcus pneumoniae, read-out: ED50.

Converted amounts (≈) assume the structure as drawn. Where only a bound is given, the exact number is not on record here.

T1 sequence (P0A0K8 2-644 limits assumed): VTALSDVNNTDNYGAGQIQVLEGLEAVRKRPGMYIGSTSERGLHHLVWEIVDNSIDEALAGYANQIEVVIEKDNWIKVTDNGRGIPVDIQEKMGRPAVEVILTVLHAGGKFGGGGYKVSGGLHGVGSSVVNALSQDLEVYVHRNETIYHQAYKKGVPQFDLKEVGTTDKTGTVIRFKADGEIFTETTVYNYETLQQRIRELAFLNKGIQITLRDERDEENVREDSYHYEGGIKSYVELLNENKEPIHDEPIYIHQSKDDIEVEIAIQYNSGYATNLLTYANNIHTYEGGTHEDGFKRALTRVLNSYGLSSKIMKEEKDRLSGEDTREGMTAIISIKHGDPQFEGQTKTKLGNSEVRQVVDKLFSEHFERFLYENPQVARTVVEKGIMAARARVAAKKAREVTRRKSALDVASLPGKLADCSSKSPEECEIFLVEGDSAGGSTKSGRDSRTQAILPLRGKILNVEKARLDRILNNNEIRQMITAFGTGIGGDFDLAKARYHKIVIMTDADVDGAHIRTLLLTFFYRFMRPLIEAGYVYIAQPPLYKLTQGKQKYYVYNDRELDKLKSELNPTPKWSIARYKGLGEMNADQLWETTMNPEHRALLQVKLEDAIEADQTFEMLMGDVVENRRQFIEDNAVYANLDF
T1 sequence (P20831 whole entry partner): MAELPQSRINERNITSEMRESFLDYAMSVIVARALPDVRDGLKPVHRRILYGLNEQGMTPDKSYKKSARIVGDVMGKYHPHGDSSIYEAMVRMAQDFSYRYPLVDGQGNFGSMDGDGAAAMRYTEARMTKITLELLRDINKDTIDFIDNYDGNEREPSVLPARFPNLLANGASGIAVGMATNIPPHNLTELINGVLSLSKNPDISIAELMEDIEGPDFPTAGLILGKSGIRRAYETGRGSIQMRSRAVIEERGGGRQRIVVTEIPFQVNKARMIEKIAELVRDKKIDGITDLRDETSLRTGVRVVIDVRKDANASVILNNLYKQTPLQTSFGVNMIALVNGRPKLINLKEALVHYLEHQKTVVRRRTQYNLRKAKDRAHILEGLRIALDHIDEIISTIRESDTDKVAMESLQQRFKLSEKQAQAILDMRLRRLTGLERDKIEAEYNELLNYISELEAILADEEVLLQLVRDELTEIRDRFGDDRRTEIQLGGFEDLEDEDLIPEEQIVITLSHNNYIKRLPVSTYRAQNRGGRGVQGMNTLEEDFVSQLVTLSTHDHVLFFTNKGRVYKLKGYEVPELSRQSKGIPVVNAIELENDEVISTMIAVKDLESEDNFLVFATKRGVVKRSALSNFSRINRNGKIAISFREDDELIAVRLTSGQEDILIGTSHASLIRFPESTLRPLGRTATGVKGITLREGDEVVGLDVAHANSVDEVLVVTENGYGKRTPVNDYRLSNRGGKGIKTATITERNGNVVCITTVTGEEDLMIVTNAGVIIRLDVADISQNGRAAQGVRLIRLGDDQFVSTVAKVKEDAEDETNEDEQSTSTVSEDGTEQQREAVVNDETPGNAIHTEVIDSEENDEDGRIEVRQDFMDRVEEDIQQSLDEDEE
Description for physchem: Aqueous solubility in pH 7.4 phosphate buffer (0.05 M) at 37 degree C

One may read the ED50 as the dose at which the effect has come halfway, by size or by number of responders. On to `Cc1c(N2CCC(N(C)C)C2)c(F)cn2c(=O)c(C(=O)O)cc(C3CC3)c12` (stereo unspecified), for which the MIC with Streptococcus pyogenes was determined as 0.1 µg/mL (≈ 0.268 µM); in data set [1] it was 0.05 µg/mL (≈ 0.134 µM); in [3], 0.02 µg/mL (≈ 0.0536 µM); in data set [4], 0.02 µg/mL (≈ 0.0536 µM); in the data set on Enterococcus faecalis it was 0.12 µg/mL (≈ 0.321 µM); in data set [6] it was 0.1 µg/mL (≈ 0.268 µM). Moreover, the MIC worked out at 12.5 µg/mL (≈ 33.5 µM) in data set [7]; 0.1 µg/mL (≈ 0.268 µM) in [8]; 0.39 µg/mL (≈ 1.04 µM) in data set [9]; 1 µg/mL (≈ 2.68 µM) against Enterococcus faecium; 3.1 µg/mL (≈ 8.3 µM) in [10]; 0.39 µg/mL (≈ 1.04 µM) in [12]. The MIC in [13] turned out to be 0.78 µg/mL (≈ 2.09 µM); in data set [15], 0.05 µg/mL (≈ 0.134 µM). Besides, the ED50 is above 25 mg/kg in the data set with Streptococcus pneumoniae [2]; 44.1 mg/kg in the data set on Streptococcus pneumoniae [5]; above 10 mg/kg in the data set on Escherichia coli; 25 mg/kg in data set [11]; 4.7 mg/kg in [14]; 1.9 mg/kg in data set [16].
The term solubility denotes how much of the substance goes into solution per volume. For orientation: Cmax means the maximum level reached in the sampled fluid or tissue. One may read the bioavailability as dose-corrected exposure relative to a reference, in per cent. Higher therefore signals good availability. A word on the half-life: it is how long it takes for the measured level to halve. On to `Cc1c(N2C[C@@H](N)C[C@@H]2C)c(F)cn2c(=O)c(C(=O)O)cc(C3CC3)c12`, for which the MIC in the data set on Streptococcus pyogenes is 0.05 µg/mL (≈ 0.139 µM); in [1], 0.01 µg/mL (≈ 0.0278 µM); in data set [3] it was 0.01 µg/mL (≈ 0.0278 µM); in data set [4], 0.005 µg/mL (≈ 0.0139 µM); in data set [6], 0.1 µg/mL (≈ 0.278 µM); in data set [7], 3.1 µg/mL (≈ 8.63 µM). The MIC in data set [8] came out at 0.05 µg/mL (≈ 0.139 µM); in data set [9], 0.2 µg/mL (≈ 0.556 µM); in data set [10], 0.78 µg/mL (≈ 2.17 µM); in data set [12], 0.05 µg/mL (≈ 0.139 µM); in data set [13] it was 1.56 µg/mL (≈ 4.34 µM); in data set [15], 0.01 µg/mL (≈ 0.0278 µM). Also, in the data set “physchem”, the solubility was found to be 70 µg/mL (≈ 195 µM). Further, the CC50 in data set [17] was determined as 0.2 µg/mL (≈ 0.556 µM). The compound also showed a Cmax in [18] of 740 ng/mL. In “in vivo [19]”, this compound gave a bioavailability of 44%. In “in vivo [20]”, this compound had a half-life of 1.6 h.
`NC1CCN(c2c(F)cn3c(=O)c(C(=O)O)cc(C4CC4)c3c2Cl)C1` (stereo unspecified): the MIC with Streptococcus pyogenes came out at 0.39 µg/mL (≈ 1.07 µM); in data set [1] it was 0.2 µg/mL (≈ 0.547 µM); in data set [3], 0.05 µg/mL (≈ 0.137 µM); in [4], 0.05 µg/mL (≈ 0.137 µM); in data set [6], 0.39 µg/mL (≈ 1.07 µM); in data set [7], 6.2 µg/mL (≈ 16.9 µM). Also, the MIC in [8] was 0.1 µg/mL (≈ 0.273 µM); in data set [9] it was 0.39 µg/mL (≈ 1.07 µM); in data set [10], 3.1 µg/mL (≈ 8.47 µM); in [12], 0.78 µg/mL (≈ 2.13 µM); in [13], 6.2 µg/mL (≈ 16.9 µM); in [15], 0.2 µg/mL (≈ 0.547 µM). Also, the ED50 in the data set with Streptococcus pneumoniae [2] was 8.5 mg/kg; in the data set with Streptococcus pneumoniae [5], 11.1 mg/kg; in the data set with Pseudomonas aeruginosa [21], 17 mg/kg; in data set [11], 5.7 mg/kg; in [22] (setting [28]), 3.3 mg/kg; in [14], 1.6 mg/kg. Also, the values for the ED50 in data set [23] and in [16] were 5.6 mg/kg and 1 mg/kg, respectively. The compound further came in with a CC50 in data set [17] of 0.31 µg/mL (≈ 0.847 µM).
As for `Cc1c(N2C[C@@H]3CCN[C@@H]3C2)c(F)cn2c(=O)c(C(=O)O)cc(C3CC3)c12` (stereo in doubt; 45o), the MIC is 0.05 µg/mL (≈ 0.135 µM) in the data set on Streptococcus pyogenes, 6.2 µg/mL (≈ 16.7 µM) in [7] and 0.39 µg/mL (≈ 1.05 µM) in data set [9]. In addition, the ED50 was determined as 7.6 mg/kg with Streptococcus pneumoniae [5] (setting [29]), 39.9 mg/kg in the data set with Pseudomonas aeruginosa [24], 4.5 mg/kg with Streptococcus pneumoniae [25] and 6.4 mg/kg in data set [22]. The same compound returned a Cmax in [18] of 1130 ng/mL. Besides, the bioavailability in “in vivo [19]” came to 62%. The compound also had a half-life in “in vivo [26]” of 4.1 h.
As to `Cc1c(N2CC[C@@H](O)C2)c(F)cn2c(=O)c(C(=O)O)cc(C3CC3)c12`, the MIC was found to be 0.02 µg/mL (≈ 0.0577 µM) in data set [1]; 0.02 µg/mL (≈ 0.0577 µM) in data set [3]; 0.1 µg/mL (≈ 0.289 µM) in data set [4]; 0.2 µg/mL (≈ 0.577 µM) in [6]; 25 µg/mL (≈ 72.2 µM) in [7]; 0.2 µg/mL (≈ 0.577 µM) against Streptococcus equinus. Also, the MIC in data set [8] is 0.2 µg/mL (≈ 0.577 µM); in data set [9] it was 0.78 µg/mL (≈ 2.25 µM); in data set [10] it was 0.78 µg/mL (≈ 2.25 µM); in data set [13] it was 1.56 µg/mL (≈ 4.5 µM); in data set [15] it was 0.02 µg/mL (≈ 0.0577 µM). Further, the ED50 in the data set with Streptococcus pneumoniae [27] is above 2 mg/kg; in [11], 11.2 mg/kg; in [14], 6.1 mg/kg.
On to `CC(NC(=O)C(C)NC1CCN(c2nc3c(-c4ccc(F)cc4F)cc(C(=O)O)c(=O)n3cc2F)C1)C(=O)O` (stereo unspecified), for which, in “physchem”, the solubility turned out to be 1000 µg/mL (≈ 1830 µM). Besides, the ED50 amounted to 49.7 mg/kg with Streptococcus pneumoniae [5]; 140 mg/kg with Streptococcus pneumoniae [5] (setting [29]); 68.8 mg/kg with Pseudomonas aeruginosa [21]; 3 mg/kg in data set [11]; 14.8 mg/kg in [22] (setting [28]); 2.8 mg/kg in data set [14]. Moreover, the results for the ED50 in data set [23] and in [16] were 14.3 mg/kg and below 2.5 mg/kg, respectively.

The record behind these values is ChEMBL document CHEMBL1129258, “Synthesis and structure-activity relationships of 2-pyridones: a novel series of potent DNA gyrase inhibitors as antibacterial agents” (J Med Chem, 1996).
